Results reported in patent US11434227B2, “Broad spectrum antibacterial activity of novel bisbenzimidazoles targeting topoisomerase IA and the synergistic composition of bisbenzimidazole with efflux pump inhibitors against pathogenic bacteria” (Jawaharlal Nehru University (JNU), priority 2016, dated 2022).
Values after ≈ are worked out from the molar mass of the structure shown.

Legend:
[1] = tested on: E. coli DH5α; experiment: Susceptibility (MIC, PAE, MBC), broth microdilution
Description: (§1) MICs were determined by the broth microdilution method according to CLSI methods (Clinical and Laboratory Standards Institute, 2005). Inoculants were incubated at 37° C. on cation adjusted Mueller Hinton (MH) Broth for 18 to 24 h. Compound were dissolved in media to 10 doubling dilutions from 128 to 0.125 μg/mL. All the bacterial strains were grown in 96 well plate with low evaporation lid (Falcon, Becton Dickinson) in presence of derivatives of benzimidazoles at 0.125, 0.25, 0.5, 1, 2, 4, 8, 16, 32, 64, 128, 256 μg/mL concentrations. […] Plates were read by Tecan Micro-plate Reader at 600 nm.

[2] = tested on: Escherichia coli (ATCC 25922); experiment: as above
Description: as §1

[3] = tested on: E. coli 81^R; experiment: as above
[4] = tested on: E. coli 118^R; experiment: as above
[5] = tested on: E. coli 72^R; experiment: as above; details: Escherichia coli
Description: as §1

[6] = target: E. coli Topoisomerase IA (Escherichia coli, UniProt P06612); experiment: Topoisomerase IA cleavage and religation assay; type: biochemical; details: 0.12-2 μM DMA, 5′-32P labeled ssDNA
E. coli Topoisomerase IA, sequence (P06612 whole entry): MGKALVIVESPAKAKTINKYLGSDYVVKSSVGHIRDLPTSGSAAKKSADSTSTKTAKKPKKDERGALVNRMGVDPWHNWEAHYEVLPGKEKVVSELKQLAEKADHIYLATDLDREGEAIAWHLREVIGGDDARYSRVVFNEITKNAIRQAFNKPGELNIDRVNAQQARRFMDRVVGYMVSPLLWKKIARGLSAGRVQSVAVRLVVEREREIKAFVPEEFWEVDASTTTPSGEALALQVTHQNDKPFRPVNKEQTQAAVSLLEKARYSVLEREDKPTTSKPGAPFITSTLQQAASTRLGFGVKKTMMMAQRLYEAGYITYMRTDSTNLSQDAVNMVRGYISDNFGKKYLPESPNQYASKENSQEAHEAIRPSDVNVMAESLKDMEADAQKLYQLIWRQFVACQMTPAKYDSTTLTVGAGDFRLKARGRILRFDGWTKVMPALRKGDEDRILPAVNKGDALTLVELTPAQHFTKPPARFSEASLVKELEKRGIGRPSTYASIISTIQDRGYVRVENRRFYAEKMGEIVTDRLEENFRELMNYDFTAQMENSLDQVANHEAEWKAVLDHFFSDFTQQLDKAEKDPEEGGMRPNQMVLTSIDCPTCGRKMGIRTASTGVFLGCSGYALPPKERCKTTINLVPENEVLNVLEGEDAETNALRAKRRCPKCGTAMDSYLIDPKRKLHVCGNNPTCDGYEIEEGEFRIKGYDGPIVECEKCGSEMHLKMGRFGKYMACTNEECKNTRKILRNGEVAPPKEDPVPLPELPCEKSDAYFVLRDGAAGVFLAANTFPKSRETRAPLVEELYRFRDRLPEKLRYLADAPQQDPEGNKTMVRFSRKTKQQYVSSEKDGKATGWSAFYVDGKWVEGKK
Description: Compounds at different concentrations were added to DNA cleavage reaction mixtures (20 μl) containing 50 mM TrisHCl, pH 7.5, 2 mM MgCl2 0.2 mM DTT, 0.5 mM EDTA, 30 μg/ml BSA, 25 μg/ml of pHOT1 having specific site for DNA, 40 units of E. coli Topoisomerase IA and ligands was incubated at 37° C. for 30 min. The reactions was then terminated by adding 1% SDS and 150 μg/m Proteinase K, and incubated further for 1 h at 37° C. The DNA samples was electrophoresed in 1% agarose gel in 0.5×TBE. Ethidium bromide at a finial concentration of 0.5 μg/ml was included in the gel to resolve slowly migrating nicked product (cleavable complex) from the supercoiled DNA molecules.

[7] = tested on: E. coli 451^R; experiment: Susceptibility (MIC, PAE, MBC), broth microdilution
Description: as §1

[8] = tested on: E. coli 360^R; experiment: as above
Description: as §1

[9] = tested on: E. coli 151^R; experiment: as above
Description: as §1

[10] = tested on: E. coli 85^R; experiment: as above
Description: as §1

[11] = tested on: E. coli 59^R; experiment: as above
Description: as §1

[12] = tested on: E. coli 132^R; experiment: as above
Description: as §1

[13] = target: E. coli Topoisomerase IA (EcTopoIA) (Escherichia coli, UniProt P06612); details: reference 5; cited from earlier work
E. coli Topoisomerase IA (EcTopoIA), sequence (P06612 whole entry): as above

[14] = tested on: E. coli 401^R; experiment: Susceptibility (MIC, PAE, MBC), broth microdilution
Description: as §1

[15] = tested on: E. coli 555^R; experiment: as above
Description: as §1

SMILES: COc1ccc(-c2nc3cc(-c4nc5ccc(N6CCN(C)CC6)cc5[nH]4)ccc3[nH]2)cc1OC [DMA, 3,4-Dimethoxyphenyl bisbenzimidazole, reference compound]
- PAE ([1]; E. coli DH5α): 20.8 h
- MBC ([1]; Escherichia coli): 16 µM (≈ 7.5 µg/mL)
- MIC ([1]; Escherichia coli): 3.74 µg/mL (≈ 7.98 µM)
- PAE ([2]; ATCC 25922): 22.3 h
- MBC ([2]; Escherichia coli, ATCC25922): 64 µM (≈ 30 µg/mL)
- MIC ([2]; Escherichia coli, ATCC25922): 15 µg/mL (≈ 32 µM)
- PAE ([3]; E. coli 81^R): 23.6 h
- MBC ([3]; Escherichia coli): 32 µM (≈ 15 µg/mL)
- MIC ([3]; Escherichia coli): 7.49 µg/mL (≈ 16 µM)
- PAE ([4]; E. coli 118^R): 24 h
- MBC ([4]; Escherichia coli): 16 µM (≈ 7.5 µg/mL)
- MIC ([4]; Escherichia coli): 3.74 µg/mL (≈ 7.98 µM)
- MBC [5]: 16 µM (≈ 7.5 µg/mL)
- MIC [5]: 3.74 µg/mL (≈ 7.98 µM)
- DNA cleavage product formed by EcTopo1A [6]: increased the DNA cleavage product formed by EcTopo1A
- PAE ([7]; E. coli 451^R): 22 h
- MBC ([7]; Escherichia coli): 16 µM (≈ 7.5 µg/mL)
- MIC ([7]; Escherichia coli): 3.74 µg/mL (≈ 7.98 µM)
- PAE ([8]; E. coli 360^R): 24 h
- MBC ([8]; Escherichia coli): 16 µM (≈ 7.5 µg/mL)
- MIC ([8]; Escherichia coli): 3.74 µg/mL (≈ 7.98 µM)
- PAE ([9]; E. coli 151^R): 21.6 h
- MBC ([9]; Escherichia coli): 32 µM (≈ 15 µg/mL)
- MIC ([9]; Escherichia coli): 7.49 µg/mL (≈ 16 µM)
- PAE ([10]; E. coli 85^R): 24 h
- MBC ([10]; Escherichia coli): 16 µM (≈ 7.5 µg/mL)
- MIC ([10]; Escherichia coli): 3.74 µg/mL (≈ 7.98 µM)
- PAE ([11]; E. coli 59^R): 1.6 h
- MBC ([11]; Escherichia coli): 32 µM (≈ 15 µg/mL)
- MIC ([11]; Escherichia coli): 7.49 µg/mL (≈ 16 µM)
- PAE ([12]; E. coli 132^R): 24 h
- MBC ([12]; Escherichia coli): 32 µM (≈ 15 µg/mL)
- MIC ([12]; Escherichia coli): 7.49 µg/mL (≈ 16 µM)
- target specificity [13]: specific Escherichia coli Topoisomerase IA poison inhibitor over Gyrase, Human Topoisomerase I and Human Topoisomerase II
- PAE ([14]; E. coli 401^R): 16 h
- MBC ([14]; Escherichia coli): 64 µM (≈ 30 µg/mL)
- MIC ([14]; Escherichia coli): 15 µg/mL (≈ 32 µM)
- PAE ([15]; E. coli 555^R): 24 h
- MBC ([15]; Escherichia coli): 64 µM (≈ 30 µg/mL)
- MIC ([15]; Escherichia coli): 15 µg/mL (≈ 32 µM)
